Reference: PubChem BioAssay (NCI)
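Abbreviation: GI50, concentration required for 50% inhibition of growth. TGI: concentration producing complete growth inhibition.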

Key:
Assay in all cases: growth of human tumour cells (NCI), 384-well format
KM12 colon = tested on: KM12 colon
PC-3 prostate = tested on: PC-3 prostate
COLO 205 colon = tested on: COLO 205 colon
SN12C renal = tested on: SN12C renal
LOX IMVI melanoma = tested on: LOX IMVI melanoma
HOP-92 NSCLC = tested on: HOP-92 NSCLC
HOP-62 NSCLC = tested on: HOP-62 NSCLC
DU-145 prostate = tested on: DU-145 prostate
A549 NSCLC = tested on: A549 NSCLC
SK-MEL-28 melanoma = tested on: SK-MEL-28 melanoma
HCT-116 colon = tested on: HCT-116 colon
HCC-2998 colon = tested on: HCC-2998 colon
SW-620 colon = tested on: SW-620 colon
U251 glioblastoma = tested on: U251 glioblastoma
SK-OV-3 ovarian = tested on: SK-OV-3 ovarian
EKVX NSCLC = tested on: EKVX NSCLC
A498 renal = tested on: A498 renal
SF-268 CNS = tested on: SF-268 CNS
TK-10 renal = tested on: TK-10 renal
OVCAR-8 ovarian = tested on: OVCAR-8 ovarian
OVCAR-3 ovarian = tested on: OVCAR-3 ovarian
HT29 colon = tested on: HT29 colon
UO-31 renal = tested on: UO-31 renal
OVCAR-5 ovarian = tested on: OVCAR-5 ovarian
MCF7 breast = tested on: MCF7 breast
ACHN renal = tested on: ACHN renal
K-562 leukemia = tested on: K-562 leukemia
T-47D breast = tested on: T-47D breast
HCT-15 colon = tested on: HCT-15 colon
MOLT-4 leukemia = tested on: MOLT-4 leukemia
NCI-H522 lung = tested on: NCI-H522 lung
NCI-H23 lung = tested on: NCI-H23 lung
MDA-MB-231 breast = tested on: MDA-MB-231 breast
OVCAR-4 ovarian = tested on: OVCAR-4 ovarian
HL-60(TB) leukemia = tested on: HL-60(TB) leukemia
UACC-62 melanoma = tested on: UACC-62 melanoma
NCI-H322M lung = tested on: NCI-H322M lung
RXF 393 renal = tested on: RXF 393 renal
SF-295 CNS = tested on: SF-295 CNS
BT-549 breast = tested on: BT-549 breast
SF-539 CNS = tested on: SF-539 CNS
SK-MEL-2 melanoma = tested on: SK-MEL-2 melanoma
HS 578T breast = tested on: HS 578T breast
IGROV1 ovarian = tested on: IGROV1 ovarian
CAKI-1 renal = tested on: CAKI-1 renal
MDA-MB-435 melanoma = tested on: MDA-MB-435 melanoma
786-0 renal = tested on: 786-0 renal
NCI-H460 NSCLC = tested on: NCI-H460 NSCLC
NCI-H226 lung = tested on: NCI-H226 lung
SNB-19 CNS = tested on: SNB-19 CNS
UACC-257 melanoma = tested on: UACC-257 melanoma
MDA-MB-468 breast = tested on: MDA-MB-468 breast
MALME-3M melanoma = tested on: MALME-3M melanoma
SNB-75 CNS = tested on: SNB-75 CNS
M14 melanoma = tested on: M14 melanoma

O=C(CCCCCCC(=O)Nc1ccccc1)NO
GI50 (KM12 colon): 0.329 µM | TGI (KM12 colon): 10.7 µM | GI50 (PC-3 prostate): 1.48 µM | TGI (PC-3 prostate): 3.93 µM | GI50 (COLO 205 colon): 1.48 µM | TGI (COLO 205 colon): 2.93 µM | GI50 (SN12C renal): 1.81 µM | TGI (SN12C renal): 4.22 µM | GI50 (LOX IMVI melanoma): 1.45 µM | TGI (LOX IMVI melanoma): 2.79 µM | GI50 (HOP-92 NSCLC): 1.61 µM | TGI (HOP-92 NSCLC): 3.98 µM | GI50 (HOP-62 NSCLC): 1.2 µM | TGI (HOP-62 NSCLC): 4.99 µM | GI50 (DU-145 prostate): 0.729 µM | TGI (DU-145 prostate): 2.32 µM | GI50 (A549 NSCLC): 1.41 µM | TGI (A549 NSCLC): 4.16 µM | GI50 (SK-MEL-28 melanoma): 0.988 µM | TGI (SK-MEL-28 melanoma): 2.52 µM | GI50 (HCT-116 colon): 0.461 µM | TGI (HCT-116 colon): 1.73 µM | GI50 (HCC-2998 colon): 1.65 µM | TGI (HCC-2998 colon): 3.98 µM | GI50 (SW-620 colon): 0.948 µM | TGI (SW-620 colon): 2.27 µM | GI50 (U251 glioblastoma): 1.3 µM | TGI (U251 glioblastoma): 2.86 µM | GI50 (SK-OV-3 ovarian): 1.68 µM | TGI (SK-OV-3 ovarian): 4.15 µM | GI50 (EKVX NSCLC): 3.8 µM | TGI (EKVX NSCLC): 28.5 µM | GI50 (A498 renal): 1.52 µM | TGI (A498 renal): 3.42 µM | GI50 (SF-268 CNS): 1.25 µM | TGI (SF-268 CNS): 2.81 µM | GI50 (TK-10 renal): 1.27 µM | TGI (TK-10 renal): 4.85 µM | GI50 (OVCAR-8 ovarian): 0.486 µM | TGI (OVCAR-8 ovarian): 2.4 µM | GI50 (OVCAR-3 ovarian): 1.57 µM | TGI (OVCAR-3 ovarian): 4.24 µM | GI50 (HT29 colon): 1.37 µM | TGI (HT29 colon): 3.12 µM | GI50 (UO-31 renal): 2.15 µM | TGI (UO-31 renal): 9.08 µM | GI50 (OVCAR-5 ovarian): 0.853 µM | TGI (OVCAR-5 ovarian): 3.05 µM | GI50 (MCF7 breast): 1.02 µM | TGI (MCF7 breast): 2.49 µM | GI50 (ACHN renal): 1.33 µM | TGI (ACHN renal): 3.59 µM | GI50 (K-562 leukemia): 0.408 µM | TGI (K-562 leukemia): 1.49 µM | GI50 (T-47D breast): 0.667 µM | TGI (T-47D breast): 2.35 µM | GI50 (HCT-15 colon): 2.53 µM | TGI (HCT-15 colon): 10.3 µM | GI50 (MOLT-4 leukemia): 0.19 µM | TGI (MOLT-4 leukemia): 0.444 µM | GI50 (NCI-H522 lung): 0.431 µM | TGI (NCI-H522 lung): 1.78 µM | GI50 (NCI-H23 lung): 1.37 µM | TGI (NCI-H23 lung): 3.99 µM | GI50 (MDA-MB-231 breast): 1.09 µM | TGI (MDA-MB-231 breast): 2.91 µM | GI50 (OVCAR-4 ovarian): 3.15 µM | TGI (OVCAR-4 ovarian): 8.55 µM | GI50 (HL-60(TB) leukemia): 0.348 µM | TGI (HL-60(TB) leukemia): 0.733 µM | GI50 (UACC-62 melanoma): 0.467 µM | TGI (UACC-62 melanoma): 1.57 µM | GI50 (NCI-H322M lung): 1.51 µM | TGI (NCI-H322M lung): 5.81 µM | GI50 (RXF 393 renal): 0.471 µM | TGI (RXF 393 renal): 1.41 µM | GI50 (SF-295 CNS): 1.81 µM | TGI (SF-295 CNS): 6.07 µM | GI50 (BT-549 breast): 2.49 µM | TGI (BT-549 breast): 7.02 µM | GI50 (SF-539 CNS): 2.04 µM | TGI (SF-539 CNS): 12.3 µM | GI50 (SK-MEL-2 melanoma): 0.369 µM | TGI (SK-MEL-2 melanoma): 0.982 µM | GI50 (HS 578T breast): 0.736 µM | TGI (HS 578T breast): 2.23 µM | GI50 (IGROV1 ovarian): 0.886 µM | TGI (IGROV1 ovarian): 2.35 µM | GI50 (CAKI-1 renal): 0.704 µM | TGI (CAKI-1 renal): 2.12 µM | GI50 (MDA-MB-435 melanoma): 1.54 µM | TGI (MDA-MB-435 melanoma): 3.39 µM | GI50 ([…]-0 renal): 2.19 µM | TGI (786-0 renal): 10.4 µM | GI50 (NCI-H460 NSCLC): 0.876 µM | TGI (NCI-H460 NSCLC): 4.81 µM | GI50 (NCI-H226 lung): 3.93 µM | TGI (NCI-H226 lung): 16.8 µM | GI50 (SNB-19 CNS): 1.99 µM | TGI (SNB-19 CNS): 5.21 µM | GI50 (UACC-257 melanoma): 0.626 µM | TGI (UACC-257 melanoma): 2.45 µM | GI50 (MDA-MB-468 breast): 0.365 µM | TGI (MDA-MB-468 breast): 1.09 µM | GI50 (MALME-3M melanoma): 0.4 µM | TGI (MALME-3M melanoma): 1.46 µM | GI50 (SNB-75 CNS): 0.399 µM | TGI (SNB-75 CNS): 2.63 µM | GI50 (M14 melanoma): 1.49 µM | TGI (M14 melanoma): 7.78 µM
